This note sets out measurements from ChEMBL document CHEMBL2440076, “New triarylpyrazoles as broad-spectrum anticancer agents: design, synthesis, and biological evaluation” (Eur J Med Chem, 2013).

Assay type in all cases: functional
One assay concerns COLO 205. Nature of the assay: Growth inhibition of human COLO205 cells assessed as cell growth at 5X10'-6 M after 48 hrs by sulforhodamine B assay. To be noted: COLO 205, 48 h, read-out: Activity.
The next assay concerns OVCAR-4. Nature of the assay: Growth inhibition of human OVCAR4 cells assessed as cell growth at 5X10'-7 M after 48 hrs by sulforhodamine B assay. The conditions noted are these: OVCAR-4, 48 h, read-out: Activity.
The next assay relates to UACC-62. Nature of the assay: Growth inhibition of human UACC62 cells assessed as cell growth at 5X10'-7 M after 48 hrs by sulforhodamine B assay. The conditions noted are these: UACC-62, 48 h, read-out: Activity.
The test system of another assay is M14. Nature of the assay: Growth inhibition of human M14 cells assessed as cell growth at 5X10'-7 M after 48 hrs by sulforhodamine B assay. To be noted: M14, 48 h, read-out: Activity.
The subject of another assay is RXF 393. Put plainly: Growth inhibition of human RXF393 cells assessed as cell growth at 5X10'-8 M after 48 hrs by sulforhodamine B assay. The conditions noted are these: RXF 393, 48 h, read-out: Activity.
For a further assay, the system named is PC-3. Nature of the assay: Growth inhibition of human PC3 cells assessed as cell growth at 5X10'-5 M after 48 hrs by sulforhodamine B assay. To be noted: PC-3, 48 h, read-out: Activity.
In another assay the test system is NCI-H226. Nature of the assay: Growth inhibition of human NCI-H226 cells assessed as cell growth at 5X10'-8 M after 48 hrs by sulforhodamine B assay. The conditions noted are these: NCI-H226, 48 h, read-out: Activity.
The next assay has as its system MDA-MB-435. Put plainly: Growth inhibition of human MDA-MB-435 cells assessed as cell growth at 5X10'-9 M after 48 hrs by sulforhodamine B assay. The conditions noted are these: MDA-MB-435, 48 h, read-out: Activity.

Each structure is given as a SMILES string.

For `COc1cc(-c2nn(-c3cccc(NC(=O)Nc4ccc(Cl)c(Cl)c4)c3)cc2-c2ccncc2)ccc1Cl`, the growth at 5 µM in the assay with COLO 205 was -89%. The growth at 0.5 µM was determined as 81% with OVCAR-4, 75% in the assay on UACC-62 and 78% with M14. Moreover, the values for the growth at 0.05 µM in the assay on RXF 393 and with NCI-H226 were 94% and 92%, respectively. In addition, the growth at 50 µM in the assay on PC-3 was -22%. Moreover, the growth at 0.005 µM in the assay with MDA-MB-435 turned out to be 97%.

For the molecule `COc1cc(-c2nn(-c3cccc(NC(=O)Nc4cccc(C(F)(F)F)c4)c3)cc2-c2ccncc2)ccc1Cl`, the growth at 5 µM with COLO 205 was -78%. For the same molecule, the growth at 0.5 µM in the assay on OVCAR-4 is 73%; in the assay with UACC-62, 74%; in the assay with M14, 73%. Moreover, the growth at 0.05 µM in the assay with RXF 393 amounted to 101%; in the assay on NCI-H226, 96%. In addition, the growth at 50 µM in the assay with PC-3 is -22%. The growth at 0.005 µM in the assay on MDA-MB-435 was 95%.

`COc1cc(-c2nn(-c3cccc(NC(=O)Nc4cc(C(F)(F)F)cc(C(F)(F)F)c4)c3)cc2-c2ccncc2)ccc1Cl`: the growth at 5 µM in the assay on COLO 205 was -94%. Besides, the growth at 0.5 µM in the assay with OVCAR-4 was determined as 73%; with UACC-62 it was 66%; in the assay with M14 it was 71%. Also, the values for the growth at 0.05 µM in the assay on RXF 393 and in the assay on NCI-H226 were 92% and 90%, respectively. Moreover, the growth at 50 µM in the assay with PC-3 is -31%. In the assay with MDA-MB-435, the growth at 0.005 µM was determined as 98%.

For the molecule `COc1cc(-c2nn(-c3cccc(NC(=O)c4cccc(C(F)(F)F)c4)c3)cc2-c2ccncc2)ccc1Cl`, the growth at 5 µM in the assay on COLO 205 stood at 1%. For the same molecule, the growth at 0.5 µM in the assay with OVCAR-4 stood at 81%; with UACC-62, 83%; in the assay on M14, 91%. In addition, the growth at 0.05 µM in the assay with RXF 393 came to 99%; with NCI-H226, 93%. In addition, the growth at 50 µM in the assay on PC-3 worked out at 14%. Also, the growth at 0.005 µM in the assay with MDA-MB-435 stood at 96%.
